The text below walks through data of publication PMC6690782 (Bioorganic & medicinal chemistry letters, 2019).

The conditions of series [1]: cited from earlier work.
Series [2] concerns the target LAT1 (Homo sapiens, UniProt Q01650). Kind of series: cis-inhibition assay: inhibition of [3H]-gabapentin uptake into HEK-hLAT1 cells. Type of series: cell-based. Particulars: for fold decrease in potency relative to corresponding histidine/tryptophan analog: cis-inhibition IC50, 7d vs 16, 13 vs 22.

Sequence of LAT1 (Q01650 whole entry): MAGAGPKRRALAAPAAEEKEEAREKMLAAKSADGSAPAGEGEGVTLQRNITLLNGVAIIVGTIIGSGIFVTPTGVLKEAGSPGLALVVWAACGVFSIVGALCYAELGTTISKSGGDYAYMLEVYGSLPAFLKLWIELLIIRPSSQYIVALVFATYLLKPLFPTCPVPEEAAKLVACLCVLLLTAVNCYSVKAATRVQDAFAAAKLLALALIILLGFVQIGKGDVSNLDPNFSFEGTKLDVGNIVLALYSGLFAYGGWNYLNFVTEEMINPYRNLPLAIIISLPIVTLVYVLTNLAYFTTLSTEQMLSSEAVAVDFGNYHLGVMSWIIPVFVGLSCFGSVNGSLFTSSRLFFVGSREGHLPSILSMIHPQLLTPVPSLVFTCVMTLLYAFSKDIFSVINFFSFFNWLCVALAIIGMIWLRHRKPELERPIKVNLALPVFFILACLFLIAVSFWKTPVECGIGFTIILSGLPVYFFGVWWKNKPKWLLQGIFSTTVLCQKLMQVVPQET
Sequence of LAT1 (P08195 102-630 partner): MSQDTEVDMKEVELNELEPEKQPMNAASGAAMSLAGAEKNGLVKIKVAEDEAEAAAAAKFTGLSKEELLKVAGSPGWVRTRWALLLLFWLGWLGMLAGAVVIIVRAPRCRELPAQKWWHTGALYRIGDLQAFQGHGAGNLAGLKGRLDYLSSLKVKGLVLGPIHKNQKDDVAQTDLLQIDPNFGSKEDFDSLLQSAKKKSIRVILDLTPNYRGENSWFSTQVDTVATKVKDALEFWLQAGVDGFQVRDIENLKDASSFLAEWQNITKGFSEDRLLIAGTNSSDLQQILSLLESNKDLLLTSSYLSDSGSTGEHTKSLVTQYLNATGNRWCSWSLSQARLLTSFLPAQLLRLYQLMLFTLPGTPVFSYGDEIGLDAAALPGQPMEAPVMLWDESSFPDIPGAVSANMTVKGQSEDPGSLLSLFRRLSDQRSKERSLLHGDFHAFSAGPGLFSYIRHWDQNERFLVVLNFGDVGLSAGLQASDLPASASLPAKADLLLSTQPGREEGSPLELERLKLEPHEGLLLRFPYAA

Regarding `c1c[nH]nn1` [1,2,3-triazole], in series [1], the “pKa of conjugate acid” value is recorded as 1.15.
Turning to `Cc1cn(C[C@H](N)C(=O)O)nn1` [Compound 7d], in series [2], the “fold decrease in potency relative to corresponding histidine/tryptophan analog” value was 2 fold.
For the molecule `N[C@@H](Cc1cn(Cc2ccccc2)nn1)C(=O)O` [Compound 11e], the inhibition at 200 µM in series [2] is -19%.
On to `N[C@@H](Cn1nnc2ccccc21)C(=O)O` [Compound 13], for which, in series [2], the “fold decrease in potency relative to corresponding histidine/tryptophan analog” value was found to be 2 fold.
Turning to `N[C@@H](Cc1cn(Cc2ccccc2)cn1)C(=O)O` [Compound 17, reference compound], the inhibition at 200 µM in series [2] was 74%.
